From ChEMBL document CHEMBL4043240, “Synthesis and evaluation of the NSCLC anti-cancer activity and physical properties of 4-aryl-N-phenylpyrimidin-2-amines” (Bioorg Med Chem Lett, 2017)
Values after ≈ are worked out from the molar mass of the structure shown.

What was measured:
A549 = experiment: Cytotoxicity against human A549 cells after 72 hrs by MTT assay; assay type: functional, cell-based; settings: A549, 72 h
[1] = Selectivity index, ratio of IC50 for African green monkey Vero cells to IC50 for human A549 cells; assay type: functional
Vero = experiment: Cytotoxicity against African green monkey Vero cells after 72 hrs by MTT assay; assay type: ADME, cell-based; settings: Chlorocebus sabaeus
KB [2] = experiment: Cytotoxicity against human KB cells at 10 uM after 72 hrs by resazurin based fluorescence assay relative to control; assay type: functional
[3] = Solubility of the compound in PBS at pH 7.4 by HPLC-UV analysis; assay type: physicochemical
[4] = 1-octanol/water partition co-efficient, log D of the compound in PBS at pH 7.4 after 6 hrs by HPLC-UV based shake-flask method; assay type: physicochemical; settings: 1-octanol/PBS
NCI-H187 [5] = experiment: Cytotoxicity against human NCI-H187 cells at 10 uM after 72 hrs by resazurin based fluorescence assay; assay type: functional
MCF7 [6] = experiment: Cytotoxicity against human MCF7 cells at 10 uM after 72 hrs by resazurin based fluorescence assay; assay type: functional
[7] = biological target: Cyclin-dependent kinase 5 (Homo sapiens, UniProt Q00535); experiment: Inhibition of human CDK5
NCI-H187 [8] = experiment: Cytotoxicity against human NCI-H187 cells after 72 hrs by resazurin based fluorescence assay; assay type: functional, cell-based; settings: NCI-H187, 72 h
KB [9] = experiment: Cytotoxicity against human KB cells after 72 hrs by resazurin based fluorescence assay; assay type: functional, cell-based
NCI-H187 [10] = experiment: Cytotoxicity against human NCI-H187 cells at 10 ug/ml after 72 hrs by resazurin based fluorescence assay; assay type: functional
KB [11] = experiment: Cytotoxicity against human KB cells at 10 ug/ml after 72 hrs by resazurin based fluorescence assay relative to control; assay type: functional
MCF7 [12] = experiment: cells; settings: Homo sapiens, MCF7, 72 h
Description: Cytotoxicity against human MCF7 cells after 72 hrs by resazurin based fluorescence assay

Chain of Cyclin-dependent kinase 5 (Q00535 whole entry): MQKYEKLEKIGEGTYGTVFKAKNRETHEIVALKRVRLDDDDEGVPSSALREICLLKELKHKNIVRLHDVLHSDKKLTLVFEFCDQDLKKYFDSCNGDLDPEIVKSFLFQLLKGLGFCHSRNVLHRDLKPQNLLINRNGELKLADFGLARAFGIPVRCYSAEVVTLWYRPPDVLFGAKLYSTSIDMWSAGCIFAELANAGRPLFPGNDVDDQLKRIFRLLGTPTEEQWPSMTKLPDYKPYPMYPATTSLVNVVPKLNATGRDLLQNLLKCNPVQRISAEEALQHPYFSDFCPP

With `Cc1csc(-c2ccnc(Nc3ccc(C(=O)O)cc3)n2)c1` the IC50 (A549) was 18.2 µM, the “Ratio IC50” value [1] was 4.4 and the IC50 (Vero) was 80.8 µM.

With `COc1ccc(-c2ccnc(Nc3ccc(C(=O)O)cc3)n2)cc1` the IC50 (A549) was 20.3 µM, the “Ratio IC50” value [1] was greater than 4.9 and the Activity (KB [2]) was 0%. It also gave a solubility [3] of 12.1 µM (≈ 3.89 µg/mL), a logD at 6 h [4] of 1.2 and an IC50 (Vero) greater than 100 µM. The Activity (NCI-H187 [5]) was 23.5% and the Activity (MCF7 [6]) was 0%.

`COc1ccc(-c2ccnc(Nc3cccc(N)c3)n2)cc1` gave an IC50 [7] of 81 µM.

For `Cc1csc(-c2ccnc(Nc3ccc(C(N)=O)cc3)n2)c1`, the IC50 (A549) was 30 µM, the “Ratio IC50” value [1] was 0 and the IC50 (Vero) was 6.2 µM.

For `COc1ccc(-c2ccnc(Nc3ccc4nc[nH]c4c3)n2)cc1`, the IC50 (A549) was 13.9 µM, the “Ratio IC50” value [1] was 1.1 and the IC50 (Vero) was 14.8 µM.

For `CS(=O)(=O)c1ccc(-c2ccnc(Nc3cccc(C(N)=O)c3)n2)cc1`, the IC50 (A549) was greater than 100 µM, the “Ratio IC50” value [1] was 0 and the IC50 (Vero) was 37.9 µM.

In the case of `COc1ccc(-c2ccnc(Nc3cccc(C(N)=O)c3)n2)cc1`, the IC50 (A549) is reported as 6.7 µM, the “Ratio IC50” value [1] is reported as 0 and the Activity (KB [2]) is reported as 0%. The solubility [3] was 4.1 µM (≈ 1.31 µg/mL), the logD at 6 h [4] was 3.1 and the IC50 (Vero) was 2.7 µM. It also gave an Activity (NCI-H187 [5]) of 18.6% and an Activity (MCF7 [6]) of 0%.

For `Cc1csc(-c2ccnc(Nc3cc([N+](=O)[O-])ccc3O)n2)c1`, the IC50 (A549) was greater than 100 µM, the “Ratio IC50” value [1] was 0 and the IC50 (Vero) was greater than 100 µM.

For `COC(=O)c1ccc(Nc2nccc(-c3ccc(OC)cc3)n2)cc1`, the IC50 (A549) was 6 µM, the “Ratio IC50” value [1] was 0 and the Activity (KB [2]) was 0%. For the same molecule, the solubility [3] was 6.9 µM (≈ 2.31 µg/mL), the logD at 6 h [4] was 2.9 and the IC50 (Vero) was 4.5 µM. For the same molecule, the Activity (NCI-H187 [5]) was 23.8% and the Activity (MCF7 [6]) was 0%.

In the case of `COc1ccc(-c2ccnc(Nc3ccc(C(N)=O)cc3)n2)cc1`, the IC50 (A549) is reported as 5.3 µM, the “Ratio IC50” value [1] is reported as 0 and the Activity (KB [2]) is reported as 0%. For the same molecule, the solubility [3] was less than 0.6 µM, the logD at 6 h [4] was 2.8 and the IC50 (Vero) was 5.4 µM. It also gave an Activity (NCI-H187 [5]) of 28.1% and an Activity (MCF7 [6]) of 1.9%.

With `NS(=O)(=O)c1cccc(Nc2nccc(-c3ccccc3)n2)c1` the IC50 (A549) was 0.2 µM, the “Ratio IC50” value [1] was 4 and the IC50 (NCI-H187 [8]) was 1.18 µM. For the same molecule, the Activity (KB [2]) was 93.6%, the solubility [3] was 3.4 µM (≈ 1.11 µg/mL) and the logD at 6 h [4] was 2.9. It also gave an IC50 (Vero) of 0.8 µM, an IC50 (KB [9]) of 2.44 µM and an Activity (NCI-H187 [5]) of 99.8%. The Activity (MCF7 [6]) was 0%.

Work on `Cc1c2ccncc2c(C)c2c1[nH]c1ccccc12` [ELLIPTECINE] yielded an IC50 (NCI-H187 [8]) of 0.95 µM, an Activity (NCI-H187 [10]) of 99.24% and an IC50 (KB [9]) of 2.81 µM. The Activity (KB [11]) was 96.3%.

For `COc1cccc(-c2ccnc(Nc3cccc(S(N)(=O)=O)c3)n2)c1`, the IC50 (A549) was 2.6 µM, the “Ratio IC50” value [1] was 0 and the IC50 (NCI-H187 [8]) was 1.34 µM. The Activity (KB [2]) was 94.9%, the solubility [3] was less than 0.6 µM and the IC50 (MCF7 [12]) was 1.5 µM. It also gave a logD at 6 h [4] of 3, an IC50 (Vero) of 1.1 µM and an IC50 (KB [9]) of 3.56 µM. It also gave an Activity (NCI-H187 [5]) of 96.6% and an Activity (MCF7 [6]) of 63.8%.

`COc1cccc2c1C(=O)c1c(O)c3c(c(O)c1C2=O)C[C@@](O)(C(=O)CO)C[C@@H]3O[C@H]1C[C@H](N)[C@H](O)[C@H](C)O1` [DOXORUBICIN] showed an IC50 (A549) of 0.4 µM, an IC50 (NCI-H187 [8]) of 0.06 µM and an Activity (NCI-H187 [10]) of 96.98%. For the same molecule, the IC50 (Vero) was 1.4 µM, the IC50 (KB [9]) was 1.35 µM and the Activity (KB [11]) was 99.7%.

With `CC(=O)Nc1ccc(-c2ccnc(Nc3cccc(S(N)(=O)=O)c3)n2)cc1` the IC50 (A549) was 6.6 µM, the “Ratio IC50” value [1] was 1.3 and the IC50 (Vero) was 8.7 µM.

With `CS(=O)(=O)c1ccc(-c2ccnc(Nc3cccc(S(N)(=O)=O)c3)n2)cc1` the IC50 (A549) was greater than 100 µM, the “Ratio IC50” value [1] was 0 and the IC50 (Vero) was greater than 100 µM.

For `COc1ccc(-c2ccnc(Nc3cccc(NS(C)(=O)=O)c3)n2)cc1`, the IC50 (A549) was 0.2 µM, the “Ratio IC50” value [1] was 4.5 and the IC50 (NCI-H187 [8]) was 5.35 µM. The Activity (KB [2]) was 43.7%, the solubility [3] was less than 0.5 µM and the logD at 6 h [4] was 3.2. It also gave an IC50 (Vero) of 0.9 µM, an Activity (NCI-H187 [5]) of 84.8% and an Activity (MCF7 [6]) of 41%.

For `COc1ccc(-c2ccnc(Nc3cccc(S(N)(=O)=O)c3)n2)cc1`, the IC50 (A549) was 1.6 µM, the “Ratio IC50” value [1] was 0 and the IC50 (NCI-H187 [8]) was 2.08 µM. The Activity (KB [2]) was 76.3%, the solubility [3] was 38.4 µM (≈ 13.7 µg/mL) and the IC50 (MCF7 [12]) was 5.95 µM. The logD at 6 h [4] was 2.7, the IC50 (Vero) was 1.1 µM and the IC50 (KB [9]) was 1.29 µM. For the same molecule, the Activity (NCI-H187 [5]) was 82.3% and the Activity (MCF7 [6]) was 63.3%.

For `COc1ccc(-c2ccnc(Nc3ccc4cn[nH]c4c3)n2)cc1`, the IC50 (A549) was 65.1 µM, the “Ratio IC50” value [1] was 0 and the IC50 (Vero) was 7.9 µM.

In the case of `CC(=O)Nc1ccc(-c2ccnc(Nc3cccc(C(N)=O)c3)n2)cc1`, the IC50 (A549) is reported as 33 µM, the “Ratio IC50” value [1] is reported as greater than 3 and the IC50 (Vero) is reported as greater than 100 µM.

In the case of `CC/C(=C(\c1ccccc1)c1ccc(OCCN(C)C)cc1)c1ccccc1` [TAMOXIFEN], the IC50 (MCF7 [12]) is reported as 7.94 µM.

With `Cc1csc(-c2ccnc(Nc3cccc(C(N)=O)c3)n2)c1` the IC50 (A549) was greater than 100 µM, the “Ratio IC50” value [1] was 0 and the IC50 (Vero) was greater than 100 µM.

For `COc1ccc(-c2ccnc(Nc3ccc(S(N)(=O)=O)cc3)n2)cc1`, the IC50 (A549) was 4.4 µM, the “Ratio IC50” value [1] was 0 and the IC50 (Vero) was 2.4 µM.
